Assay results published in patent US20240261267A1, “METHODS FOR TREATING MULTIPLE SCLEROSIS” (Vanda Pharmaceuticals Inc., priority 2021, published 2024).

Test system: primary mouse OPCs
Experiment: differentiation assay, quantitative PCR
Assay type: cell-based
Experimental: The effects of ponesimod, a selective S1P1 receptor agonist, and A971432, a selective S1P5 receptor agonist, on oligodendrocyte precursor cell (OPC) migration and differentiation were evaluated. Nine concentrations were tested (logarithmic dilutions ranging from 0.3 nM to 3000 nM, n=6 per concentration). Fingolimod phosphate (P-FTY720, 3000 nM, n=6) was included as a positive control, 0.1% DMSO was included (min.one/plate) as a negative control. Primary mouse OPCs were harvested on postnatal day 0 or 1 and mixed glia cultures were maintained for 14 days. Primary OPCs were then purified using the shake-off method, and used for either a migration assay, or a differentiation assay, as detailed below. To harvest primary mouse OPCs, cortices are isolated from mouse pups on postnatal day 0 or 1 and placed in ice-cold Dulbecco's Modified Eagle Medium (DMEM) (Sigma Aldrich, Overijse, BE). The cortices are homogenized and centrifuged for 5 minutes at 300 G. The supernatant is removed, and a papain solution is added for 30 minutes (125 uL DMEM solution per brain containing 20 units/ml papain and 40 μg/ml DNase, at 37 degrees). Digestion is inactivated by adding 9 ml cold DMEM. The solution is then centrifuged for 5 minutes at […]. The supernatant is carefully removed, and the pellet is resuspended in 2-5 ml culture medium (DMEM with 10% fetal calf serum (Biowest, Nuaillé, FR) and 1% pen/strep (Sigma Aldrich, Overijse, BE)). […] Cell suspension is divided over PLL (Sigma Aldrich, Overijse, BE)-coated flasks (2 brains per flask) and DMEM is added to a final volume of 10 ml. DMEM is replaced on day 4, 7, and 11. On day 7 and 11, insulin (Sigma Aldrich, Overijse, BE) is added to the medium (5μg/ml). On day 14, OPCs are separated from astrocytes by the shake-off method: flasks are placed on a shaker for 45 minutes at 75 rpm (37 degrees). The medium is then aspirated and discarded, and 10 ml fresh culture medium is added. Flasks are then returned to the shaker for 16-18 hours shaking at 280 rpm. Next, the medium is isolated, and this cell suspension is placed in a plastic petri dish and incubated for 25 minutes. The medium, which contains the OPCs, is then collected and centrifuged for 5 minutes at 300 G. Cells are then resuspended in SATO differentiation medium containing 2% horse serum, 2% B-27, 50 U/ml P/S, 2.4 μl/ml transferrin, 1.04 μl/ml L-thyroxine, 1 μl/ml putrescin, 1 μl/ml progesterone, 1 μl/ml TIT, 0.74 μl/ml sodium selenite and 0.5 μl/ml insulin (all from Sigma-Aldrich, Overijse, BE). […] After shake-off, cells are reset for their differentiation status: one hour after plating, cells are treated with platelet-derived growth factor (PDGF, 10 ng/ml, Peprotech EC Ltd, London, UK) and fibroblast growth factor (fgf, 10 ng/ml, Peprotech EC Ltd, London, UK). Twenty-four hours after plating, cells are treated again with fgf (10 ng/ml). 250,000 cells are plated onto glass coverslips in 24-well plates. Cells are treated with test compound or DMSO on day 1 (twenty-four hours after fgf treatment) and 3, and lysated on day 4. Total RNA was isolated from primary OPCs, using the RNeasy mini kit (Qiagen, Venlo, the Netherlands), according to the manufacturer's instructions. RNA concentration and quality is analyzed with a Nanodrop spectrophotometer (Isogen Life Science, Leiden, The Netherlands). RNA is reverse-transcribed using the qScript cDNA Supermix kit (Quanta, Leuven, Belgium). qPCR is performed to analyze gene expression, using the Applied Biosystems QuantStudio 3 Real-Time PCR System (Life Technologies, Gent, Belgium). The reaction mixture consists of SYBR Green master mix (Life Technologies, Carlsbad, USA), 10 μM forward and reverse primers (Integrated DNA Technologies, Leuven, Belgium), nuclease-free water and cDNA template (12.5 ng), up to a total reaction volume of 10 μl. […] All data was normalised against plate-matched negative controls.

| SMILES | MOG expression (3 nM) | Mag gene expression (3 nM) | Mbp expression (3 nM) | Mag gene expression (10 nM) | Mbp expression (10 nM) | Ng2 gene expression (10 nM) | PLP expression (10 nM) | Mag gene expression (30 nM) | Mobp expression (30 nM) | Ng2 gene expression (30 nM) | Mobp expression (100 nM) | MOG expression (300 nM) | PLP expression (300 nM) | Mag gene expression (1000 nM) | Mbp expression (1000 nM) | Mobp expression (1000 nM) | Ng2 gene expression (1000 nM) | PLP expression (1000 nM) | expression of Ng2, Plp, Mbp, Mobp, Mog, and Mag (concentration series) | changes at the gene expression level (all concentrations tested, normalised to negative controls) |
| --- | --- | --- | --- | --- | --- | --- | --- | --- | --- | --- | --- | --- | --- | --- | --- | --- | --- | --- | --- | --- |
| O=C(O)C1CN(Cc2ccc(OCc3ccc(Cl)c(Cl)c3)cc2)C1 [A97] | significant decrease | significant decrease | decrease | significant decrease | decrease | significant decrease | significant decrease | significant decrease | significant decrease | significant decrease | significant decrease | significant decrease | significant decrease | significant decrease | decrease | significant decrease | significant decrease | significant decrease | significant concentration-dependent decreases | – |
| CCC/N=C1\S/C(=C\c2ccc(OC[C@H](O)CO)c(Cl)c2)C(=O)N1c1ccccc1C [ponesimod, (R)-5-[3-chloro-4-(2,3-dihydroxy-propoxy)-benz[Z]ylidene]-2-([Z]-propylimino)-3-o-tolyl-thiazolidin-4-one] | – | – | – | – | – | – | – | – | – | – | – | – | – | – | – | – | – | – | – | No significant changes |
